According to paper PMC6120934, “Inhibiting Multiple Deubiquitinases to Reduce Androgen Receptor Expression in Prostate Cancer Cells” (Scientific Reports, 2018):
pIC50: −log10 of the molar value.

Assays:
Assay type in all cases: biochemical
[1] = target: T1, USP36 (Homo sapiens, UniProt Q9P275); assay: MALDI-TOF DUB activity assay with diubiquitin, single dose […]
T1 construct: recombinant
T1 sequence (Q9P275 1-1123): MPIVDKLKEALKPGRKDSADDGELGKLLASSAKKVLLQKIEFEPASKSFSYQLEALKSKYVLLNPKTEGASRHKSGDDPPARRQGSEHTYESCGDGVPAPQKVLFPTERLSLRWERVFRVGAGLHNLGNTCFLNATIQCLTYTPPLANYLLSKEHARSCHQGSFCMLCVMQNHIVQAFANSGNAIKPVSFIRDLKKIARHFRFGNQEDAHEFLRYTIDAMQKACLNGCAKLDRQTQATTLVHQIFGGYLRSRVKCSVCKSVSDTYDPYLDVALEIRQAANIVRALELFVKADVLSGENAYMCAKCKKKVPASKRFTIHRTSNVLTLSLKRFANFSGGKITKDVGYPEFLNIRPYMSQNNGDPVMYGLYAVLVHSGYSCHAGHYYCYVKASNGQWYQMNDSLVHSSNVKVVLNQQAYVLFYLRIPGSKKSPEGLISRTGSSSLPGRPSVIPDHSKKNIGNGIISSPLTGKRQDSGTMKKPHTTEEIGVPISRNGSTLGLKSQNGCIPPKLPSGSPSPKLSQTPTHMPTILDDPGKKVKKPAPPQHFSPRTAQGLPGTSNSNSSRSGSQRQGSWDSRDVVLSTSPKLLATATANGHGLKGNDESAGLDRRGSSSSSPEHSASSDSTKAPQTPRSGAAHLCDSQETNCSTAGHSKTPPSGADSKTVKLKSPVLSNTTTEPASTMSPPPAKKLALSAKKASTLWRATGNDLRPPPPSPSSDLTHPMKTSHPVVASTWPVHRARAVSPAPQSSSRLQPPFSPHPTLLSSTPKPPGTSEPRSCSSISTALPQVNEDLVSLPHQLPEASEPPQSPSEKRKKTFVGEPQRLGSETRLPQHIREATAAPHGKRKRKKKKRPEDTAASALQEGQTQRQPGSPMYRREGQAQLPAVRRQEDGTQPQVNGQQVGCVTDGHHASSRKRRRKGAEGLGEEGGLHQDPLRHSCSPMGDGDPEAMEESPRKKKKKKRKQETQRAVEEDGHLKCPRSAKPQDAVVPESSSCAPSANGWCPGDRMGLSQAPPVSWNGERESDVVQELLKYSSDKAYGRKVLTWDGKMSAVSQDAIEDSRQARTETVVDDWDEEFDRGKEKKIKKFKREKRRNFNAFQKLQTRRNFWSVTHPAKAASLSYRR

[2] = target: T2, USP16 (Homo sapiens, UniProt Q9Y5T5); assay: as above
T2 construct: recombinant

[3] = target: T3, USP27X (Homo sapiens, UniProt A6NNY8); assay: as above
T3 construct: recombinant (recUSP27)
T3 sequence (A6NNY8 1-438): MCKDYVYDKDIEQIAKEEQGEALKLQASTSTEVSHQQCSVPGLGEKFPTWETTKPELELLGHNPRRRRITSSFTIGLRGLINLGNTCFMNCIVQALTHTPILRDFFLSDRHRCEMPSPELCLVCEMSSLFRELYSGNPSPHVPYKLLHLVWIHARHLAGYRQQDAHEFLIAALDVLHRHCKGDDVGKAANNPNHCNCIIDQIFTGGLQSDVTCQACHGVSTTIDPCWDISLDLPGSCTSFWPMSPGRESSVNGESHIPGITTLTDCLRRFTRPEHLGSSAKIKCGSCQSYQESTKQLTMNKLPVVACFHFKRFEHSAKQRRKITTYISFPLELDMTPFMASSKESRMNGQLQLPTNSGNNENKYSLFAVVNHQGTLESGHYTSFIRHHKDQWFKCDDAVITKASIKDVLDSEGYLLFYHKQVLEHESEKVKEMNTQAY

[4] = target: T4, USP21 (Homo sapiens, UniProt Q9UK80); assay: MALDI-TOF DUB activity assay with diubiquitin; […] inhibition at […]
T4 construct: recombinant (recUSP21)
T4 sequence (Q9UK80 1-565): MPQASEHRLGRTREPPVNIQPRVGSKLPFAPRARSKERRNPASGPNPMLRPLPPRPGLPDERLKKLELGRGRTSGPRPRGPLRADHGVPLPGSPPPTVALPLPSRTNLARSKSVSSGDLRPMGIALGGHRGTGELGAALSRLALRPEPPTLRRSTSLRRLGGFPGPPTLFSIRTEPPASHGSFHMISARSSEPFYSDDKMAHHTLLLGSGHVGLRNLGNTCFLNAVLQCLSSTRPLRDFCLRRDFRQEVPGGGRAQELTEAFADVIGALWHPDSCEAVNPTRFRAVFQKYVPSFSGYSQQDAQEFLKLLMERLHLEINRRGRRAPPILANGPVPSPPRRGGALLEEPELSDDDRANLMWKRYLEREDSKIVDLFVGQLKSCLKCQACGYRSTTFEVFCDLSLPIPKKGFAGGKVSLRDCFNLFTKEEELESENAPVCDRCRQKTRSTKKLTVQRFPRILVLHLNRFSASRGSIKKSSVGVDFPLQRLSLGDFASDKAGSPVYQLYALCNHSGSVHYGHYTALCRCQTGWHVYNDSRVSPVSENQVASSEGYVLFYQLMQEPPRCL

T2 sequence (Q9Y5T5 whole entry): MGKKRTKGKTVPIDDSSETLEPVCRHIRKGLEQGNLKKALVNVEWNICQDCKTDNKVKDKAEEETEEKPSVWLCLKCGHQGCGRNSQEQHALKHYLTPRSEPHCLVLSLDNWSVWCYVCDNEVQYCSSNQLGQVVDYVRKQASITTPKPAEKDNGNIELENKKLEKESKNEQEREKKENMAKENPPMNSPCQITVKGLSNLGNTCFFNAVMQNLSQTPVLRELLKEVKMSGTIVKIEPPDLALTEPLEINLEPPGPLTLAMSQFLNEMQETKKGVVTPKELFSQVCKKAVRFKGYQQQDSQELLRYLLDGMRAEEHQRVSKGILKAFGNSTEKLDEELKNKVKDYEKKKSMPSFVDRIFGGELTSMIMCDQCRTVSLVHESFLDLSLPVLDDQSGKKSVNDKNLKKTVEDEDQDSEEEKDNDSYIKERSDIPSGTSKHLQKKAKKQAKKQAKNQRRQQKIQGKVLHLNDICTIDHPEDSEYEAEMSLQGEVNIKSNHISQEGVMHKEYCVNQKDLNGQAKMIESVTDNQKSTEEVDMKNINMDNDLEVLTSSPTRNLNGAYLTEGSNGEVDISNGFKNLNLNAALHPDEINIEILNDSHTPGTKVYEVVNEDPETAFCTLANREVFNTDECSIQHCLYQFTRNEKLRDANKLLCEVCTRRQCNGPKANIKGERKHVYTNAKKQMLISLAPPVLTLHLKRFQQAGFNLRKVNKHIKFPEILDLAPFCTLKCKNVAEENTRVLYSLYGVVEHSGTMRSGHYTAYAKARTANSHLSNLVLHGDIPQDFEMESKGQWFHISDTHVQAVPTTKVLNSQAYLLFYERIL

Question: With `C=C(C)[C@@H]1CC[C@]2(C(=O)O)CC[C@]3(C)[C@H](CC[C@@H]4[C@@]5(C)CC[C@H](O)C(C)(C)[C@@H]5CC[C@]43C)[C@@H]12` [BA, betulinic acid] as the molecule, how does the inhibition at 10 µM [1] read?
Answer: 40%

Question: What about the inhibition at 10 µM [2] of the same molecule?
Answer: 40%

Question: What about the inhibition at 10 µM [3] of the same molecule?
Answer: 60%

Question: What about the pIC50 [4] of the same molecule?
Answer: 5.21
